Source: patent US20090253796A1, “METHOD FOR TREATING VASCULAR DISEASE” (Research Foundation Itsuu Laboratory, priority 2002, published 2009)

Legend:
KLF5/BTEB2+/- mice = test: Cuff injury in KLF5/BTEB2+/- knockout mice; format: in vivo; details: in which granulation was otherwise suppressed
Excerpt: It is known that various kinds of growth factors are induced in blood vessel walls against affections in the cardiovascular system remodeling. By using mice (KLF5/BTEB2+/−mice) with hetero-knockout of Zn finger type transcription factor KLF5/BTEB2, which is strongly expressed in neointima of injured blood vessels among such growth factors, studies were made to know whether or not the effect of proliferation of neointima was induced by the retinoid action.

[1] = system: angiotensin II hypercardia model mice; test: Angiotensin II hypercardia model; format: in vivo
Experimental: Mice were administered with angiotensin II at a dose of 3.2 mg/kg/day for two weeks by using an osmotic pressure pump to prepare hypercardia models. After 2 weeks, hypercardia, stromal fibrosing, and fibrosing around coronary artery were observed.

[2] = system: cuff-injured femoral arteries of wild-type mice (129SVxC57BL6); test: Cuff-injured femoral artery model; format: in vivo; details: for neointima of injured blood vessel (in words) / granulation around the cuff (in words): 5 mg/kg/day
Experimental: Polyethylene tube cuffs were indwelled in femoral arteries of wild-type mice (129SVxC57BL6) to injure the arteries. Am80 was orally administered at a dose of 5 mg/kg/day, and after 5 weeks, appearance and cross sections of the injured sites were evaluated. Areas of neointima of the femoral artery covered with the tube cuff and granulation tissue around the cuff were measured.

[3] = system: rabbit common iliac artery; test: Restenosis after indwelling of stent in common iliac artery; format: in vivo; details: rabbits, oral 1 mg/kg every day, 4 weeks after indwelling of the stent, p<0.05 vs control group
Experimental: Internal diameter of a rabbit common iliac artery was measured by intravascular ultrasound imaging (IVUS), and then a balloon was expanded to a size of 1 to 1.1 times of the internal diameter and a stent was indwelled. After the indwelling, the internal diameter was measured again by IVUS to confirm that the internal diameter changed 1 to 1.1 times and the stent was precisely indwelled. For each of the control group and Am80-administrated group, 6 rabbits were used. The rabbits were orally administered with Am80 at a dose of 1 mg/kg every day, and 4 weeks after the indwelling of the stent, the arteries at the stent-indwelled sites were collected and fixed to examine tissue images. Serial sections were prepared for the proximal, intermediary, and distal positions within the stent, and areas of tunica media and intima were measured.

[4] = system: human umbilical artery endothelial cells; test: BrdU uptake (proliferation) of endothelial cells; format: cell-based; details: for ratio of uptake of BrdU relative to the uptake without Am80: Endothelial cell, 10% fetal bovine serum, BrdU added after 24 hours, measured for 4 hours
Experimental: (§1) Rat aorta smooth muscle cells and human umbilical artery endothelial cells were cultured in the presence of 10% fetal bovine serum, and added with Am80 at various concentrations. After 24 hours, BrdU was added to the culture medium, and BrdU uptake ability was measured for 4 hours. The ratios of uptake of BrdU at the various concentrations relative to the uptake obtained without addition of Am80 are summarized in the table. The BrdU uptake ability represents DNA synthesis ability in proportion to the proliferation.

[5] = system: Rat aorta smooth muscle cells; test: BrdU uptake (proliferation) of smooth muscle cells; format: cell-based; details: for ratio of uptake of BrdU relative to the uptake without Am80: Smooth muscle cell, 10% fetal bovine serum, BrdU added after 24 hours, measured for 4 hours
Experimental: as §1

SMILES | granulation (in words) (KLF5/BTEB2+/- mice) | onsets of hypercardia, stromal fibrosing, and fibrosing around coronary artery ([1]; angiotensin II 3.2 mg/kg/day plus 5 mg/kg/day compound for two weeks) | Heart weight/body weight ([1]; angiotensin II 3.2 mg/kg/day plus Am80 5 mg/kg/day for two weeks, control mice 5.65 ± 0.195 mg/g) | neointima of injured blood vessel (in words) ([2]; mice, oral 5 mg/kg/day, after 5 weeks, compared with control mice) | neointima of injured blood vessel (in words) ([2]; mice, oral 5 mg/kg/day, after 5 weeks, compared with control mice; listed as 4-[5,6,7,8-tetrahydro-5,5,8,8-tetramethyl-2-naphthalenyl)carbamoyl]benzoic acid) | granulation around the cuff (in words) ([2]; mice, oral 5 mg/kg/day, after 5 weeks, compared with mice not administered) | granulation around the cuff (in words) ([2]; mice, oral 5 mg/kg/day, after 5 weeks, compared with mice not administered; listed as 4-[5,6,7,8-tetrahydro-5,5,8,8-tetramethyl-2-naphthalenyl)carbamoyl]benzoic acid) | Neointima area ([2]; mice, oral 5 mg/kg/day, after 5 weeks, control mice 0.0117 mm^2) | Granulation tissue area ([2]; mice, oral 5 mg/kg/day, after 5 weeks, control mice 1.08 mm^2) | ratio of intima/tunica media [3] | ratio of uptake of BrdU relative to the uptake without Am80 ([4]; 0.3 μM) | ratio of uptake of BrdU relative to the uptake without Am80 ([4]; 1 μM) | ratio of uptake of BrdU relative to the uptake without Am80 ([4]; 3 μM) | ratio of uptake of BrdU relative to the uptake without Am80 ([4]; 10 μM) | antiproliferative action on vascular endothelial cells (in words) ([4]; summary statement) | ratio of uptake of BrdU relative to the uptake without Am80 ([5]; 0.3 μM) | ratio of uptake of BrdU relative to the uptake without Am80 ([5]; 1 μM) | ratio of uptake of BrdU relative to the uptake without Am80 ([5]; 3 μM) | ratio of uptake of BrdU relative to the uptake without Am80 ([5]; 10 μM) | antiproliferative action on vascular smooth muscle cells (in words) ([5]; summary statement)
CN1c2cc3c(cc2N=C(c2ccc(C(=O)O)cc2)c2ccccc21)C(C)(C)CCC3(C)C [LE135, 4-(5H-7,8,9,10-tetra-hydro-5,7,7,10,10-pentamethylbenzo[e]naphtho[2,3-b][1,4]-diazepin-13-yl)benzoic acid] | strong granulation was observed |  |  |  |  |  |  |  |  |  |  |  |  |  |  |  |  |  |  | 
CC1(C)CCC(C)(C)c2cc(NC(=O)c3ccc(C(=O)O)cc3)ccc21 [Am80] |  | markedly suppressed | 4.78 ± 0.170 mg/g | significantly decreased | superior antiproliferative action on neointima | markedly suppressed | markedly suppressed granulation | 0.0019 mm^2 | 0.44 mm^2 | significantly decreased | 95.1 | 109.4 | 104.0 | 102.1 | substantially no antiproliferative action | 95.5 | 78.5 | 74.4 | 68.8 | substantially had antiproliferative action
